This is an account of results in patent US8440674B2, “Substituted pyrimidine compounds as RAF inhibitors and methods of use” (Amgen Inc., priority 2005, dated 2013).

A word on the IC50: it is the midpoint of a concentration-inhibition curve.

Where two headings read alike, the source gives them in different places. Where only a bound is given, the exact number is not on record here.

For one assay, the target named is recombinant HuBraf V600E (Homo sapiens, UniProt P15056, V600E). Description: B-raf Homogenous Time Resolved Fluorescent (HTRF) kinase assay. It is filed as biochemical. The note with it: substrate MEK1, 10 uM ATP; threshold lists; read-out: IC50 for the inhibition of B-raf as measured by the HTRF assay. On the procedure:
A Homogeneous Time Resolved Fluorescence (HTRF) kinase assay was established to assay the ability of compounds to inhibit human mutant Braf kinase activity on the substrate MEK1. […] The final concentration of the kinase reaction buffer is 50 mM Tris-HCL pH 7.5, 10 mM MgCl2, 0.5% glucose, 0.5 mM DTT, 0.01% BSA.
The detection reaction proceeds for one hour and is read on a RubyStar (BMG Labtech) counter. IC50s for the test compounds are generated using Excel-XLfit software.
(TR-FRET usually uses a lanthanide donor and a delayed reading to cut background.)

Assay [1] has as its system A375 cells, a human melanoma cell line having the V600E mutant Braf. Description: B-Raf cell-based assay (ratio of phospho-ERK1/2 to total ERK1/2). The note with it: A-375, 1 h, P-ERK/total ERK, 60 minute incubation, read-out: IC50 for the inhibition of B-raf as measured by the cell-based assay. On the procedure:
A cell-based assay was optimized to assay the ability of compounds to inhibit Braf activity in a whole cell context. […] The cell-based assay quantifies the ratio of phospho-ERK1/2 to total ERK1/2 and can thereby assay the cellular inhibition of Braf kinase activity.
A375 cells are plated into 96 well plates and grown to confluence. The cells are then changed into starve media (DMEM/0.1% BSA) for 60 minutes. Compounds in DMSO dose curves are then diluted in starve media and added to cells. […] After a 60 minute incubation the cells are fixed for 20 minutes at room temperature in 4% formaldehyde with 0.1%Triton X-100, protease and phosphatase inhibitors in PBS. The cells are washed four times in PBS then blocked for 60 minutes using a one to one mix of Odyssey blocking buffer (Li-Cor Biosciences, Inc) and PBS. Primary antibodies (rabbit anti-phospho p42/p44 MAPK (P-ERK1/2) from Cell Signaling Technology and mouse anti-ERK2 from Santa Cruz Biotechnology) are diluted in blocking buffer, added to the cells and incubated overnight at 4° C. The cells are then washed four times in PBS/0.1% Tween-20. Secondary antibodies (anti-mouse IRDye 800CW from Rockland, Inc and anti-rabbit AlexaFlour680 from Molecular Probes) are diluted in blocking buffer/0.5% Tween and incubated on cells for 60 minutes. After 4 washes in PBS/0.1% Tween-20 the microplate is scanned on an Odyssey Infrared Imager (Li-Cor Bioscience) which can read the signal given by the two secondary antibodies on their respective channels. The ratio of P-ERK/total ERK is determined and IC50s generated using Excel-XLfit software.

Sequence of recombinant HuBraf V600E (P15056 whole entry V600E): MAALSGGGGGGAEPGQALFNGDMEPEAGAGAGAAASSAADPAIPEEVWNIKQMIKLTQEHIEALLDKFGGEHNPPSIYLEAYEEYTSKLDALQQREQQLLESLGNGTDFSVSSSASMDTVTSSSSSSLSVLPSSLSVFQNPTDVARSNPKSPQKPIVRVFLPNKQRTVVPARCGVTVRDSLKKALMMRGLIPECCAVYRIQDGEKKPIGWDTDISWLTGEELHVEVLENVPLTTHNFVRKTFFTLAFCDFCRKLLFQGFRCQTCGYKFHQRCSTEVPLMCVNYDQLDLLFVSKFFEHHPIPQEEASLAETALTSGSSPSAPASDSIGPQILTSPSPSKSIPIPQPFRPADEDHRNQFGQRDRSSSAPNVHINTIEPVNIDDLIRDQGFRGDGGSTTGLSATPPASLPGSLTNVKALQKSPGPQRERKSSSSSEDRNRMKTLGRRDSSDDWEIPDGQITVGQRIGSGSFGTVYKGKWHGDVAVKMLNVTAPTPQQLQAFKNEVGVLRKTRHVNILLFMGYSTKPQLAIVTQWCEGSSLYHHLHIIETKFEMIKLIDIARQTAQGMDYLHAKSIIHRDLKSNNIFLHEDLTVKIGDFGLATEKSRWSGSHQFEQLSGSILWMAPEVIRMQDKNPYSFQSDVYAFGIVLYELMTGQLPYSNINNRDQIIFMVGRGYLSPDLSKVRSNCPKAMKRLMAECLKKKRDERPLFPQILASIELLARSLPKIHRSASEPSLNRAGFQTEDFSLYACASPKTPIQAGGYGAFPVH

`Cc1ccc2c(Nc3cccc(C(F)(F)F)c3)nccc2c1Nc1ncccc1-c1ccncn1` [Example 7, 6-methyl-N^5-(3-(4-pyrimidinyl)-2-pyridinyl)-N^1-(3-(trifluoromethyl)phenyl)-1,5-isoquinolinediamine]: the figures for the IC50 (at recombinant HuBraf V600E; in assay [1] (threshold list)) were ≤ 250 nM and ≤ 500 nM, respectively.
The like results for `COc1cc(Nc2nccc3c(Nc4ncccc4-c4ccncn4)cccc23)cc(C(F)(F)F)c1` [Example 8, N^1-(3-(methyloxy)-5-(trifluoromethyl)phenyl)-N^5-(3-(4-pyrimidinyl)-2-pyridinyl)-1,5-isoquinolinediamine] were, in that order, ≤ 250 nM and ≤ 500 nM.
The corresponding values for `Cc1ccc2c(Nc3ccccc3)nccc2c1Nc1ncccc1-c1ccncn1` [Example 9, 6-methyl-N^1-phenyl-N^5-(3-(4-pyrimidinyl)-2-pyridinyl)-1,5-isoquinolinediamine] are ≤ 250 nM and ≤ 500 nM.
The like results for `Cc1ccc2c(Nc3cccc(C(C)(C)C)c3)nccc2c1Nc1ncccc1-c1ccncn1` [Example 10, N^1-(3-(1,1-dimethylethyl)phenyl)-6-methyl-N^5-(3-(4-pyrimidinyl)-2-pyridinyl)-1,5-isoquinolinediamine] were, in that order, ≤ 250 nM and ≤ 500 nM.
Take `Cc1ccc2c(Nc3cccc(N(C)C)c3)nccc2c1Nc1ncccc1-c1ccncn1` [Example 11, N^1-(3-(dimethylamino)phenyl)-6-methyl-N^5-(3-(4-pyrimidinyl)-2-pyridinyl)-1,5-isoquinolinediamine]: the results for the IC50 (on recombinant HuBraf V600E; in assay [1] (threshold list)) were ≤ 250 nM and ≤ 500 nM, respectively.
As for `Cc1ccc2c(Nc3cccc(C(C)C)c3)nccc2c1Nc1ncccc1-c1ccncn1` [Example 12, 6-methyl-N^1-(3-(1-methylethyl)phenyl)-N^5-(3-(4-pyrimidinyl)-2-pyridinyl)-1,5-isoquinolinediamine], the IC50 at recombinant HuBraf V600E is ≤ 250 nM; in assay [1] (threshold list), ≤ 500 nM.
With `Cc1ccc2c(Nc3cccc(OC(C)C)c3)nccc2c1Nc1ncccc1-c1ccncn1` [Example 13, 6-methyl-N^1-(3-((1-methylethyl)oxy)phenyl)-N^5-(3-(4-pyrimidinyl)-2-pyridinyl)-1,5-isoquinolinediamine], the 50% inhibitory concentration (IC50) was ≤ 250 nM at recombinant HuBraf V600E and ≤ 500 nM in assay [1] (threshold list).
With `Cc1ccc2c(Nc3cccc(Cl)c3)nccc2c1Nc1ncccc1-c1ccncn1` [Example 14, N^1-(3-chlorophenyl)-6-methyl-N^5-(3-(4-pyrimidinyl)-2-pyridinyl)-1,5-isoquinolinediamine], the IC50 is ≤ 250 nM on recombinant HuBraf V600E and ≤ 500 nM in assay [1] (threshold list).
As for `Cc1ccc2c(Nc3cc(C(C)(C)C)nn3C)nccc2c1Nc1ncccc1-c1ccncn1` [Example 15, N^1-(3-(1,1-dimethylethyl)-1-methyl-1H-pyrazol-5-yl)-6-methyl-N^5-(3-(4-pyrimidinyl)-2-pyridinyl)-1,5-isoquinolinediamine], the IC50 was ≤ 250 nM on recombinant HuBraf V600E and ≤ 500 nM in assay [1] (threshold list).
The like results for `Cc1ccc2c(Nc3ccc(C(C)(C)C)cc3)nccc2c1Nc1ncccc1-c1ccncn1` [Example 16, N^1-(4-(1,1-dimethylethyl)phenyl)-6-methyl-N^5-(3-(4-pyrimidinyl)-2-pyridinyl)-1,5-isoquinolinediamine] were, in that order, ≤ 250 nM and ≤ 500 nM.
On to `CNc1nccc2c(Nc3ncccc3-c3ccncn3)c(C)ccc12` [Example 17, N^1-6-dimethyl-N^5-(3-(4-pyrimidinyl)-2-pyridinyl)-1,5-isoquinolinediamine], for which the IC50 at recombinant HuBraf V600E was ≤ 250 nM; in assay [1] (threshold list) it was ≤ 500 nM.
For the molecule `CNc1cc(-c2cccnc2Nc2c(C)ccc3c(Nc4cc(C(C)(C)C)nn4C)nccc23)ncn1` [Example 69, N^1-(3-tert-butyl-1-methyl-1H-pyrazol-5-yl)-6-methyl-N^5-(3-(6-(methylamino)pyrimidin-4-yl)pyridin-2-yl)isoquinoline-1,5-diamine], in assay [1] (threshold lists), the IC50 is ≤ 5000 nM.
Consider `CNc1ncc2cc(-c3c(C)ccc4c(Nc5cccc(OC(F)(F)F)c5)nc(C)nc34)ccc2n1` [Example 86, 6-(2,7-dimethyl-4-(3-(trifluoromethoxy)phenylamino)quinazolin-8-yl)-N-methylquinazolin-2-amine], for which the IC50 in assay [1] (threshold lists) was ≤ 5000 nM.
Take `CNc1ncc2cc(-c3c(C)ccc4c(Nc5ccc(C#N)cc5)nccc34)ccc2n1` [Example 103]: the IC50 in assay [1] (threshold list) was ≤ 500 nM; in assay [1] (threshold lists), ≤ 1000 nM.
The like results for `CNc1ncc2cc(-c3c(C)ccc4c(Nc5cccnc5)nn(C)c34)ccc2n1` [Example 163] were, in that order, ≤ 500 nM and ≤ 1000 nM.
For the molecule `CNc1ncc2cc(-c3c(C)ccc4c(Nc5cccc(C#N)c5)nn(C)c34)ccc2n1` [Example 196], in assay [1] (threshold list), the IC50 is ≤ 500 nM.
Take `Cc1ccc(C(F)(F)F)cc1Nc1nccc2c(Nc3ncccc3-c3ccncn3)c(C)ccc12` [Example 344, 6-methyl-N1-(2-methyl-5-(trifluoromethyl)phenyl)-N5-(3-(pyrimidin-4-yl)pyridin-2-yl)isoquinoline-1,5-diamine]: the IC50 on recombinant HuBraf V600E is ≤ 250 nM.
Take `CNc1cc(-c2cccnc2F)ncn1` [Example 345, 6-(2-fluoropyridin-3-yl)-N-methylpyrimidin-4-amine]: the figures for the IC50 in assay [1] (threshold list) and in assay [1] (threshold lists) were ≤ 500 nM and ≤ 1000 nM, respectively.
`CNc1cc(-c2cccnc2Nc2c(C)ccc3c(Nc4cc(C(F)(F)F)ccc4C)nccc23)ncn1` [Example 349]: the IC50 in assay [1] (threshold lists) was ≤ 5000 nM.
On the same count and under the same terms, to `CNc1ncc2cc(-c3c(C)ccc4c(Nc5cccc(C(F)(F)F)c5)nccc34)c(=O)n(C)c2n1` [Example 354, 8-methyl-6-(6-methyl-1-(3-(trifluoromethyl)phenylamino)isoquinolin-5-yl)-2-(methylamino)pyrido[2,3-d]pyrimidin-7(8H)-one] belongs ≤ 5000 nM.
Regarding `CNc1ncc2cc(-c3cccc4c(Nc5cccc(C(F)(F)F)c5)nccc34)c(=O)n(C)c2n1` [Example 360], the IC50 at recombinant HuBraf V600E is ≤ 250 nM.
Consider `Cc1ccc2c(Nc3cccc(C(F)(F)F)c3)nccc2c1-c1ccc2nc(N)ncc2c1` [Example 361, 6-(6-methyl-1-(3-(trifluoromethyl)phenylamino)isoquinolin-5-yl)quinazolin-2-amine], for which, at recombinant HuBraf V600E, the IC50 is ≤ 250 nM.
On the same count and under the same terms, to `CNc1ncc2cc(-c3c(C)ccc4c(Nc5cncc(OC(C)C)c5)nccc34)ccc2n1` [Example 378, 6-(1-(5-isopropoxypyridin-3-ylamino)-6-methylisoquinolin-5-yl)-N-methylquinazolin-2-amine] belongs ≤ 1000 nM.
For `CNc1nccc(-c2cccnc2Oc2c(C)ccc3c(Nc4cccc(OC(F)(F)F)c4)nccc23)n1` [Example 413, 6-methyl-5-(3-(2-(methylamino)pyrimidin-4-yl)pyridin-2-yloxy)-N-(3-(trifluoromethoxy)phenyl)isoquinolin-1-amine], the IC50 in assay [1] (threshold lists) is ≤ 5000 nM.
For the molecule `CNc1ncc2cc(-c3c(C)ccc4c(Nc5cccc(C(C)(C)O)c5)nncc34)ccc2n1` [Example 433, 2-(3-(6-methyl-5-(2-(methylamino)quinazolin-6-yl)phthalazin-1-ylamino)phenyl)propan-2-ol], the IC50 in assay [1] (threshold lists) was ≤ 5000 nM.
On to `CNc1ncc2cc(-c3c(C)ccc4c(Nc5ccc6c(c5)NC(=O)CC6(C)C)nnc(C)c34)ccc2n1` [Example 438], for which, in assay [1] (threshold list), the IC50 was ≤ 500 nM.
